Results from PubChem BioAssay (NCI).
Several values for one entry are separate records, joined by “and”; a condition that tells them apart may be missing. Equal entries are not always repeated.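 48-hour exposure; five concentrations; linearly interpolated endpoints. The concentration for 50% growth inhibition is given as GI50. TGI: total growth inhibition.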

Key:
Experiment in all cases: growth of human tumour cells (NCI), 48 h
SF-295 CNS = system: SF-295 CNS
NCI-H460 lung = system: NCI-H460 lung
SK-MEL-2 melanoma = system: SK-MEL-2 melanoma
M19-MEL melanoma = system: M19-MEL melanoma
LXFL 529 NSCLC = system: LXFL 529 NSCLC
DMS 273 small cell lung = system: DMS 273 small cell lung
TK-10 renal = system: TK-10 renal
786-0 renal = system: 786-0 renal
HOP-18 NSCLC = system: HOP-18 NSCLC
MDA-MB-231 breast = system: MDA-MB-231 breast
PC-3 prostate = system: PC-3 prostate
DU-145 prostate = system: DU-145 prostate

SMILES | TGI (SF-295 CNS) | TGI (NCI-H460 lung) | TGI (SK-MEL-2 melanoma) | TGI (M19-MEL melanoma) [µM] | TGI (LXFL 529 NSCLC) [µM] | TGI (DMS 273 small cell lung) [µM] | TGI (TK-10 renal) | TGI (786-0 renal) | TGI (HOP-18 NSCLC) [µM] | TGI (MDA-MB-231 breast) | TGI (PC-3 prostate) | TGI (DU-145 prostate) | GI50 (SF-295 CNS) | GI50 (MDA-MB-231 breast) | GI50 (PC-3 prostate) [µM] | GI50 (NCI-H460 lung) [µM] | GI50 (SK-MEL-2 melanoma) | GI50 (DU-145 prostate) [µM] | GI50 (TK-10 renal) | GI50 (786-0 renal)
O=[N+]([O-])c1ccc(-c2ccc(C3=Nn4c(CNc5ccccc5Cl)nnc4SC3)o2)cc1 | > 100 µM | > 100 µM | > 100 µM | > 100 | > 100 | > 100 | > 100 µM | > 100 µM |  |  |  |  |  |  |  |  |  |  |  | 
CC(=O)OCC(=O)[C@@]1(O)CC[C@H]2[C@@H]3C[C@H](C)C4=CC(=O)C=C[C@]4(C)[C@@]3(F)[C@@H](O)C[C@@]21C | > 100 µM | > 100 µM | > 100 µM | > 100 |  | > 100 | > 100 µM | > 100 µM |  |  |  |  |  |  |  |  |  |  |  | 
O=C1N[C@@H]2CCCC[C@@H]2C12CCCCC2 | > 100 µM | > 100 µM |  | > 100 | > 100 |  | > 100 µM | > 100 µM | > 100 |  |  |  |  |  |  |  |  |  |  | 
CCOC(=O)c1ccc(N=Nc2ccc(N(CCC#N)CCC#N)cc2C)cc1 | > 100 µM |  | > 100 µM | > 100 | > 100 | > 100 | > 100 µM | > 100 µM | > 100 |  |  |  |  |  |  |  |  |  |  | 
OC(c1ccccc1Br)(c1ccccc1Br)C(F)(F)F | 38.9 µM | > 100 µM | 35.5 µM | 74 | > 100 | 40.7 | > 100 µM | 35.5 µM | > 100 |  |  |  |  |  |  |  |  |  |  | 
O=C(CCCC(=O)Nc1ccc(Cl)cc1Cl)CC(=O)c1ccc2ccccc2c1 | > 100 µM | > 100 µM | > 100 µM | > 100 | > 100 | > 100 | > 100 µM | > 100 µM | > 100 |  |  |  |  |  |  |  |  |  |  | 
c1ccc(C(c2ccccc2)c2ccccn2)cc1 | > 100 µM | > 100 µM | > 100 µM | > 100 |  | > 100 | > 100 µM | > 100 µM | > 100 |  |  |  |  |  |  |  |  |  |  | 
COc1ccc2nc(NC(=O)C(=O)CC(=O)c3ccc([N+](=O)[O-])cc3)sc2c1 |  | > 100 µM | > 100 µM | > 100 | > 100 | > 100 |  | > 100 µM |  |  |  |  |  |  |  |  |  |  |  | 
CCOC(=O)C1=C(NC)OCC1=O | > 100 µM | > 100 µM | > 100 µM | > 100 | > 100 | > 100 | > 100 µM | > 100 µM |  |  |  |  |  |  |  |  |  |  |  | 
O=C1NC(=O)C2C(=O)NC(=O)C1C2Cc1ccco1 (centres undefined) | > 100 µM | > 100 µM | > 100 µM | > 100 |  | > 100 | > 100 µM | > 100 µM |  |  |  |  |  |  |  |  |  |  |  | 
COC(=O)C1=C(C(=O)OC)C2(c3ccccc3)OC1(c1ccccc1)c1cc3ccccc3cc12 | 19.8 µM | 11.9 µM | 3.13 µM | 4.22 | 2.63 | 3.7 | 3.56 µM | 2.7 µM | 2.45 |  |  |  |  |  |  |  |  |  |  | 
COc1cc(/C=C/c2csnn2)cc(OC)c1OC | > 100 µM | > 100 µM | > 100 µM | > 100 | > 100 |  | > 100 µM | > 100 µM | > 100 |  |  |  |  |  |  |  |  |  |  | 
COc1ccc(/C=C2\C(=O)N(NC(C)=O)c3ccccc32)cc1 | > 100 µM | > 100 µM | > 100 µM | > 100 |  | > 100 | > 100 µM | > 100 µM | > 100 |  |  |  |  |  |  |  |  |  |  | 
CCOC(=O)C1(C)CCC(C(C(=O)O)C(=O)O)CC1=O (centres undefined) | > 100 µM | > 100 µM |  | > 100 | > 100 | > 100 | > 100 µM | > 100 µM | > 100 |  |  |  |  |  |  |  |  |  |  | 
NC(N)=NCCCC(NCc1c2ccccc2nc2ccccc12)C(=O)O (centres undefined) | > 100 µM | > 100 µM | > 100 µM | > 100 | > 100 | > 100 | > 100 µM | > 100 µM |  | > 100 µM | > 100 µM | > 100 µM |  |  |  |  |  |  |  | 
CC(C)Cc1ccc(C(C)/C=C2\CCC(CN(C)C)C2=O)cc1 (centres undefined) | 28.6 µM | 45.8 µM | 28.6 µM | 37.5 | 22.6 |  | 18.9 µM | 8.13 µM | 32.2 | 4.52 µM | 22.4 µM | 23.6 µM |  |  |  |  |  |  |  | 
CC(=O)Oc1ccc(C2=Cc3ccc(OC(C)=O)cc3OC2C)cc1 (centres undefined) | 4.25 µM | 13.2 µM | 78.5 µM |  |  |  | > 100 µM | 33.8 µM |  | 63.7 µM | > 100 µM | 13.9 µM | 2 µM | 5.06 µM | 5.8 | 3.35 | 23.4 µM | 3.27 | 20 µM | 4.1 µM
CC(=O)O[C@H]1CC2C(C3CC[C@H](C(C)CCC(=O)O)[C@]31C)[C@H](OC(C)=O)C[C@@H]1CC3(CC[C@]21C)OOC1(CCC(C)CC1)OO3 (some centres undefined) | 19.8 µM and 5.53 µM | 16.7 µM and 7.64 µM | 27.2 µM and 5 µM |  |  |  | 33 µM and 9.19 µM | 20.3 µM and 3.81 µM |  | 29.2 µM and 7.65 µM | 17.2 µM and 14.2 µM | 18 µM and 13.5 µM | 7.46 µM and 2.25 µM | 9.81 µM and 2.79 µM |  |  | 10.7 µM and 2.02 µM |  | 18.6 µM and 3.08 µM | 7.66 µM and 1.81 µM
CC(C)[C@@H]1CC[C@]2(CO2)[C@@H]2C(=O)OCC(C(=O)O)=C[C@H]21 | > 100 µM | > 100 µM | 0.407 µM |  |  |  | > 93.5 µM | > 100 µM |  | > 75.6 µM | > 100 µM | > 100 µM | 1 µM | 0.363 µM | 0.677 | 0.402 | 0.208 µM | 0.471 | 0.686 µM | 0.358 µM
CCCCCCCCCCCC[C@@H](O)[C@H]1CC[C@H]([C@H](O)CC[C@H](O)[C@@H]2CC[C@@H](CCCCCCCC3=C[C@H](C)OC3=O)O2)O1 | > 50 µM | > 50 µM | > 50 µM |  |  |  | > 50 µM | > 50 µM |  | > 50 µM | > 50 µM | > 50 µM | 2.4 µM |  | 3.3 | > 50 |  | > 50 | 1.24 µM | 6.4 µM
Cc1nc2ccccc2c(=O)n1/N=C(\N=Nc1ccccc1Cl)c1ccccc1Cl |  | > 100 µM |  | > 100 | > 100 | > 100 | > 100 µM | > 100 µM | > 100 |  |  |  |  |  |  |  |  |  |  | 
CC(=O)NC1C(O[C@H]2C[C@H]3[C@@H]4CC=C5C[C@@H](O)CC[C@]5(C)[C@H]4CC[C@]3(C)[C@H]2[C@H](C)C(=O)CCC(C)C)OCC(O)C1O (some centres undefined) | 1.23 µM | 6.1 µM | 4.11 µM |  |  |  | > 42.5 µM | 2.21 µM |  | 12.4 µM | 10.3 µM | > 42.5 µM | 0.5 µM | 3.29 µM | 2.05 | 1.71 | 1.35 µM | 5.89 | 13.9 µM | 0.553 µM
